Read-outs that look alike come from different tables or passages of the source.
Biological target: Abl kinase (h) (Homo sapiens (Human), UniProt P00519)
Assay: Cerep kinase profiling, HTRF assay, Abl kinase
Type: biochemical
Procedure: The inhibitory activity of the compounds of the chemical series on different protein kinases was evaluated by Cerep (Cerep Kinase Profiling Service; www.cerep.com). The kinases used in the tests in vitro are human recombinant proteins expressed in human cells, insect cells or in bacteria. […] The activity of the kinase was then detected by an HTRF assay. The HTRF assay (CisBio International) is based on fluorescence transfer, using Europium (Eu3+) cryptate and XL665 respectively as donor and acceptor. When the biotinylated or tagged substrate is phosphorylated by the kinase, it reacts with a cryptate-labelled phosphospecific antibody. Addition of Streptavidin-XL665, SA-XL665, (or anti-tag antibody XL665) leads to juxtaposition of the cryptate and of the fluorophore XL665, which is reflected in fluorescence resonance energy transfer (FRET). The intensity of FRET depends on the quantity of cryptate-labelled antibody bound to the substrate, which is proportional to the quantity of phosphorylated substrate (Mathis, G. Probing molecular interactions with homogeneous techniques based on rare earth cryptates and fluorescence energy transfer.

[1] = 10 μM, compounds tested by Cerep, read-out: % inhibition of kinase activity, Abl WT (category)
[2] = Table 6, compound incubated at 10 μM, read-out: Percentage inhibition of kinase Abl
[3] = Table 9, Cerep, 5 concentrations 10^−10 M to 10^−4 M, read-out: IC50 in M Abl
[4] = compounds tested by Cerep, read-out: IC50 on kinase Abl WT (category)

Compound | inhibition at 10 µM [1] [%] | inhibition at 10 µM [2] [%] | IC50 [3] [µM] | IC50 [4] [µM]
COc1ccc(OC(=O)c2cc3cc(NC(=O)c4ccccc4)cnc3[nH]2)cc1 [ND0004, 5-(benzamido)-1H-pyrrolo[2,3-b]pyridine-2-4-methoxyphenyl carboxylate] | 10 to 50 | 31 | – | –
NC(=O)c1cc2cc(NC(=O)c3cccc(F)c3)cnc2[nH]1 [ND0005, 5-(3-Fluorobenzamido)-1H-pyrrolo[2,3-b]pyridine-2-carboxamide] | 10 to 50 | 10 | – | –
O=C(Nc1cnc2[nH]c(C(=O)NCCN3CCOCC3)cc2c1)c1cccc(F)c1 [ND0006, 5-(3-fluorobenzamido)-N-(2-morpholinoethyl)-1H-pyrrolo[2,3-b]pyridine-2-carboxamide] | 10 to 50 | 33 | > 100 | > 10
O=C(Nc1cnc2[nH]c(C(=O)N3CCOCC3)cc2c1)c1cc([N+](=O)[O-])ccc1F [ND0010, 5-(2-fluoro-5-nitrobenzamido)-2-morpholinocarbonyl-1H-pyrrolo[2,3-b]pyridine] | < 10 | 1 | > 100 | > 10
Cc1nc(-c2cccc(C(=O)Nc3cnc4[nH]c(C(=O)NCCCN(C)C)cc4c3)c2)cs1 [ND0011, 5-(3-(2-methylthiazol-4-yl)benzamido)-N-(3-(dimethylamino)propyl)-1H-pyrrolo[2,3-b]pyridine-2-carboxamide] | < 10 | 6 | > 100 | > 10
CN(C)CCCNC(=O)c1cc2cc(NC(=O)c3ccc4nccnc4c3)cnc2[nH]1 [ND0012, N-(2-(3-(dimethylamino)propylcarbamoyl)-1H-pyrrolo[2,3-b]pyridin-5-yl)quinoxaline-6-carboxamide] | < 10 | 8 | – | –
O=C(Nc1cnc2[nH]c(CO)cc2c1)c1ccccc1Br [ND0019, 2-bromo-N-(2-(hydroxymethyl)-1H-pyrrolo[2,3-b]pyridin-5-yl)benzamide] | > 50 | 82 | – | –
O=C(Nc1cnc2[nH]c(C[C@H]3CCCO3)cc2c1)c1ccccc1Br [ND0025] | 10 to 50 | 39 | – | –
CC1CCCCC1NCc1cc2cc(NC(=O)c3ccccc3Br)cnc2[nH]1 (stereo not shown) [ND0026] | < 10 | 8 | – | –
O=C(Nc1cnc2[nH]c(CNc3cccc(Br)c3)cc2c1)c1ccccc1Br [ND0027] | 10 to 50 | 29 | – | –
O=C(Nc1cnc2[nH]c(CNCc3ccccc3)cc2c1)c1ccccc1Br [ND0028] | 10 to 50 | 14 | – | –
O=C(Nc1cnc2[nH]c(Cn3ccnc3)cc2c1)c1ccccc1Br [ND0031] | > 50 | 86 | 4 | 0.1 to 10
N#Cc1ccc(NCc2cc3cc(NC(=O)c4ccccc4Br)cnc3[nH]2)cc1 [ND0032] | 10 to 50 | 27 | – | –
O=C(Nc1cnc2[nH]c(CNc3cccc([N+](=O)[O-])c3)cc2c1)c1ccccc1Br [ND0034] | 10 to 50 | 17 | – | –
N#Cc1ccccc1NCc1cc2cc(NC(=O)c3ccccc3Br)cnc2[nH]1 [ND0036] | 10 to 50 | 47 | – | –
Cc1cccc(NCc2cc3cc(NC(=O)c4ccccc4Br)cnc3[nH]2)c1 [ND0040] | 10 to 50 | 21 | – | –
COc1cccc(NCc2cc3cc(NC(=O)c4ccccc4Br)cnc3[nH]2)c1 [ND0041] | 10 to 50 | 14 | – | –
COC(=O)c1cc2cc(NC(=O)C3CC3)cnc2[nH]1 [ND0044, Methyl 5-(cyclopropanecarboxamido)-1H-pyrrolo [2,3-b]pyridine-2-carboxylate] | < 10 | 6 | – | –
COC(=O)c1cc2cc(NC(=O)C(C)C)cnc2[nH]1 [ND0045, Methyl 5-(isobutyramido)-1H-pyrrolo[2,3-b]pyridine-2-carboxylate] | > 50 | 58 | – | –

— US8580815B2, “Derivatives of azaindoles as inhibitors of protein kinases ABL and SRC” (Oribase Pharma, priority 2009, dated 2013)
